# In US20190343908A1, “Therapeutic Combination for the Treatment of Cancer” (Nerium Biotechnology Inc., priority 2011, published 2019):
# Tests used:
# [1] = tested on: PC3 (human prostate cancer); assay: Sulforhodamine B viability assay, PC3; assay type: cell-based
# Excerpt: Three different viability assays were chosen to complement each other and yielded results dependent on concentration and cell line: the Methyl Tetrazolium dye assay, the Sulforhodamine B fluorescent dye assay, and the Crystal Violet dye assay.
# (§1) The Sulforhodamine B and Crystal Violet assays provide information about protein and were used to complement the Methyl-Tetrazolium dye assay. […] It is used for the quantification of cellular proteins of cultured cells. The assay using Crystal Violet, a dye that binds electrostatically to proteins and stains DNA, provides a reliable, simple assay for measuring viability of cells.
# (§2) The Methyl Tetrazolium, Sulforhodamine B, and Crystal Violet assays were used to assess cell viabilities. The incubation times were 24 hours, 48 hours, and 72 hours. The Nerium oleander extract Anvirzel™ (a hot water extract of oleander obtained from Salud Integral, Honduras) was tested in concentrations ranging from 0.01 ng/mL to 10 ng/mL.
# (§3) Cells were detached by trypsinization (Trypsin-0.25% EDTA, Invitrogen, 25200-072) during the logarithmic phase of culture growth and plated in 96-well plates (18.000 cells/well) (Corning, Costar 359) in a final volume of 200 μl of medium per well. […] The absorbance was measured after 24 hours, 48 hours, and 72 hours of incubation.
# For the Sulforhodamine B assay, 96-well plates were fixed by 10% trichloroacetic acid (Fluka, 91228) and were incubated at 4° C. for 1 hour. Afterwards, plates were rinsed with water and cells were stained with 0.4% Sulforhodamine B (Sigma, 341738), dissolved in 1% acetic acid (Carlo Ebra, 401422) for 15 minutes at room temperature (RT). The unbound stain was washed twice with 1% acetic acid. Finally, 10 mM Tris Buffer pH 10.5 (Sigma, T6791) was added to dissolve the dye.
# (§4) The optical density of each plate was measured on a μQuant spectrophotometer and the data were analyzed with Gen5 software (μQuant Biomolecular Spectrophotometer MQX200 and Gen5™ Microplate Data Collection & Analysis software, BioTek® Instruments. Inc, April 2008). Absorbance was measured at 570 nm for all assays and a second wavelength was measured in order to subtract noise. For the Methyl-Tetrazolium assay this second wavelength was 630 nm and for the Sulforhodamine B and Crystal Violet assays it was 690 nm.
# [2] = tested on: MCF-7 (human breast cancer); assay: Crystal Violet viability assay, MCF-7; assay type: cell-based; design: key: absorbance at 570 nm (second wavelength subtracted)
# Excerpt: as §1, §2, §3
# […] Formalin was removed and 0.25% aqueous crystal violet (Sigma, HT901), dissolved in water, was added for 10 minutes at RT. Unbound Crystal Violet was rinsed by washing with water and finally 33% acetic acid was added to dissolve the dye.
# as §4
# [3] = tested on: CALU-1 (non-small cell lung carcinoma); assay: Crystal Violet viability assay, CALU-1; assay type: cell-based, human
# Excerpt: as §1, §2, §3
# For the Crystal Violet assay, the medium was removed from the 96-well plates, the plates rinsed with PBS (Sigma, P3813) and then the cells were […] by the addition of 10% formalin (MERCK, 1.04003.2500) for 20 minutes at RT. Formalin was removed and 0.25% aqueous crystal violet (Sigma, HT901), dissolved in water, was added for 10 minutes at RT. Unbound Crystal Violet was rinsed by washing with water and finally 33% acetic acid was added to dissolve the dye.
# as §4
smiles,measurement,setting,value
N.N.[Cl][Pt][Cl] [cisplatin],SRB Average,"[1]; PC3 Run 1, 24 h, 0.1 μg/ml CDDP",2.058
same,SRB Average,"[1]; PC3 Run 1, 24 h, 1 μg/ml CDDP",1.352
same,SRB Average,"[1]; PC3 Run 1, 24 h, 10 μg/ml CDDP",1.604
same,SRB Average,"[1]; PC3 Run 1, 24 h, 100 μg/ml CDDP",1.605
same,SRB Average,"[1]; PC3 Run 1, 48 h, 0.1 μg/ml CDDP",2.343
same,SRB Average,"[1]; PC3 Run 1, 48 h, 1 μg/ml CDDP",1.677
same,SRB Average,"[1]; PC3 Run 1, 48 h, 10 μg/ml CDDP",2.159
same,SRB Average,"[1]; PC3 Run 1, 48 h, 100 μg/ml CDDP",1.851
same,SRB Average,"[1]; PC3 Run 1, 72 h, 0.1 μg/ml CDDP",2.256
same,SRB Average,"[1]; PC3 Run 1, 72 h, 1 μg/ml CDDP",2.227
same,SRB Average,"[1]; PC3 Run 1, 72 h, 10 μg/ml CDDP",2.554
same,SRB Average,"[1]; PC3 Run 1, 72 h, 100 μg/ml CDDP",1.543
same,SRB Average,"[1]; PC3 Run 2, 24 h, 0.1 μg/ml CDDP",1.578
same,SRB Average,"[1]; PC3 Run 2, 24 h, 1 μg/ml CDDP",1.469
same,SRB Average,"[1]; PC3 Run 2, 24 h, 10 μg/ml CDDP",1.403
same,SRB Average,"[1]; PC3 Run 2, 24 h, 100 μg/ml CDDP",1.5
same,SRB Average,"[1]; PC3 Run 2, 48 h, 0.1 μg/ml CDDP",2.279
same,SRB Average,"[1]; PC3 Run 2, 48 h, 1 μg/ml CDDP",2.066
same,SRB Average,"[1]; PC3 Run 2, 48 h, 10 μg/ml CDDP",2.144
same,SRB Average,"[1]; PC3 Run 2, 48 h, 100 μg/ml CDDP",1.77
same,SRB Average,"[1]; PC3 Run 2, 72 h, 0.1 μg/ml CDDP",2.069
same,SRB Average,"[1]; PC3 Run 2, 72 h, 1 μg/ml CDDP",1.64
same,SRB Average,"[1]; PC3 Run 2, 72 h, 10 μg/ml CDDP",1.63
same,SRB Average,"[1]; PC3 Run 2, 72 h, 100 μg/ml CDDP",1.271
same,SRB Average,"[1]; PC3 Run 3, 24 h, 0.1 μg/ml CDDP",1.595
same,SRB Average,"[1]; PC3 Run 3, 24 h, 1 μg/ml CDDP",1.326
same,SRB Average,"[1]; PC3 Run 3, 24 h, 10 μg/ml CDDP",1.24
same,SRB Average,"[1]; PC3 Run 3, 24 h, 100 μg/ml CDDP",1.125
same,SRB Average,"[1]; PC3 Run 3, 48 h, 0.1 μg/ml CDDP",1.52
same,SRB Average,"[1]; PC3 Run 3, 48 h, 1 μg/ml CDDP",1.1
same,SRB Average,"[1]; PC3 Run 3, 48 h, 10 μg/ml CDDP",1.474
same,SRB Average,"[1]; PC3 Run 3, 48 h, 100 μg/ml CDDP",1.153
same,SRB Average,"[1]; PC3 Run 3, 72 h, 0.1 μg/ml CDDP",1.643
same,SRB Average,"[1]; PC3 Run 3, 72 h, 1 μg/ml CDDP",1.069
same,SRB Average,"[1]; PC3 Run 3, 72 h, 10 μg/ml CDDP",1.122
same,SRB Average,"[1]; PC3 Run 3, 72 h, 100 μg/ml CDDP",0.839
same,CVE Average,"[2]; MCF-7, Run 2, 24 h, 0.1 μg/ml CDDP",0.71
same,CVE Average,"[2]; MCF-7, Run 2, 24 h, 1 μg/ml CDDP",0.192
same,CVE Average,"[2]; MCF-7, Run 2, 24 h, 10 μg/ml CDDP",0.612
same,CVE Average,"[2]; MCF-7, Run 2, 24 h, 100 μg/ml CDDP",0.288
same,CVE Average,"[2]; MCF-7, Run 2, 48 h, 0.1 μg/ml CDDP",0.664
same,CVE Average,"[2]; MCF-7, Run 2, 48 h, 1 μg/ml CDDP",0.239
same,CVE Average,"[2]; MCF-7, Run 2, 48 h, 10 μg/ml CDDP",0.24
same,CVE Average,"[2]; MCF-7, Run 2, 48 h, 100 μg/ml CDDP",0.221
same,CVE Average,"[2]; MCF-7, Run 2, 72 h, 0.1 μg/ml CDDP",0.678
same,CVE Average,"[2]; MCF-7, Run 2, 72 h, 1 μg/ml CDDP",0.151
same,CVE Average,"[2]; MCF-7, Run 2, 72 h, 100 μg/ml CDDP",0.147
same,CVE Average,"[2]; MCF-7, Run 3, 24 h, 0.1 μg/ml CDDP",0.454
same,CVE Average,"[2]; MCF-7, Run 3, 24 h, 1 μg/ml CDDP",0.183
same,CVE Average,"[2]; MCF-7, Run 3, 24 h, 10 μg/ml CDDP",0.307
same,CVE Average,"[2]; MCF-7, Run 3, 48 h, 0.1 μg/ml CDDP",0.811
same,CVE Average,"[2]; MCF-7, Run 3, 48 h, 1 μg/ml CDDP",0.871
same,CVE Average,"[2]; MCF-7, Run 3, 48 h, 10 μg/ml CDDP",0.769
same,CVE Average,"[2]; MCF-7, Run 3, 48 h, 100 μg/ml CDDP",0.439
same,CVE Average,"[2]; MCF-7, Run 3, 72 h, 0.1 μg/ml CDDP",1.312
same,CVE Average,"[2]; MCF-7, Run 3, 72 h, 1 μg/ml CDDP",0.51
same,CVE Average,"[2]; MCF-7, Run 3, 72 h, 10 μg/ml CDDP",0.449
same,CVE Average,"[2]; MCF-7, Run 3, 72 h, 100 μg/ml CDDP",0.253
same,CVE Average,"[2]; MCF-7 Run 1, 24 h, 0.1 μg/ml CDDP",0.978
same,CVE Average,"[2]; MCF-7 Run 1, 24 h, 1 μg/ml CDDP",0.376
same,CVE Average,"[2]; MCF-7 Run 1, 24 h, 10 μg/ml CDDP",0.468
same,CVE Average,"[2]; MCF-7 Run 1, 24 h, 100 μg/ml CDDP",0.285
same,CVE Average,"[2]; MCF-7 Run 1, 48 h, 0.1 μg/ml CDDP",1.112
same,CVE Average,"[2]; MCF-7 Run 1, 48 h, 10 μg/ml CDDP",0.303
same,CVE Average,"[2]; MCF-7 Run 1, 48 h, 100 μg/ml CDDP",0.153
same,CVE Average,"[2]; MCF-7 Run 1, 72 h, 0.1 μg/ml CDDP",1.632
same,CVE Average,"[2]; MCF-7 Run 1, 72 h, 1 μg/ml CDDP",0.325
same,CVE Average,"[2]; MCF-7 Run 1, 72 h, 10 μg/ml CDDP",0.237
same,CVE Average,"[2]; MCF-7 Run 1, 72 h, 100 μg/ml CDDP",0.284
same,Average CVE 24 h,"[3]; CALU-1 Run 1, 0.1 μg/ml CDDP",0.554
same,Average CVE 48 h,"[3]; CALU-1 Run 1, 0.1 μg/ml CDDP",0.652
same,Average CVE 72 h,"[3]; CALU-1 Run 1, 0.1 μg/ml CDDP",0.441
same,Average CVE 24 h,"[3]; CALU-1 Run 1, 1 μg/ml CDDP",0.231
same,Average CVE 48 h,"[3]; CALU-1 Run 1, 1 μg/ml CDDP",0.661
same,Average CVE 72 h,"[3]; CALU-1 Run 1, 1 μg/ml CDDP",0.135
same,Average CVE 24 h,"[3]; CALU-1 Run 1, 10 μg/ml CDDP",0.421
same,Average CVE 48 h,"[3]; CALU-1 Run 1, 10 μg/ml CDDP",0.503
same,Average CVE 72 h,"[3]; CALU-1 Run 1, 10 μg/ml CDDP",0.157
same,Average CVE 24 h,"[3]; CALU-1 Run 1, 100 μg/ml CDDP",0.306
same,Average CVE 48 h,"[3]; CALU-1 Run 1, 100 μg/ml CDDP",0.409
same,Average CVE 72 h,"[3]; CALU-1 Run 1, 100 μg/ml CDDP",0.125
same,Average CVE 24 h,"[3]; CALU-1 Run 2, 0.1 μg/ml CDDP",0.484
same,Average CVE 48 h,"[3]; CALU-1 Run 2, 0.1 μg/ml CDDP",0.886
same,Average CVE 72 h,"[3]; CALU-1 Run 2, 0.1 μg/ml CDDP",0.786
same,Average CVE 24 h,"[3]; CALU-1 Run 2, 1 μg/ml CDDP",0.576
same,Average CVE 48 h,"[3]; CALU-1 Run 2, 1 μg/ml CDDP",0.563
same,Average CVE 72 h,"[3]; CALU-1 Run 2, 1 μg/ml CDDP",0.214
same,Average CVE 24 h,"[3]; CALU-1 Run 2, 10 μg/ml CDDP",0.64
same,Average CVE 48 h,"[3]; CALU-1 Run 2, 10 μg/ml CDDP",0.46
same,Average CVE 72 h,"[3]; CALU-1 Run 2, 10 μg/ml CDDP",0.254
same,Average CVE 24 h,"[3]; CALU-1 Run 2, 100 μg/ml CDDP",0.416
same,Average CVE 48 h,"[3]; CALU-1 Run 2, 100 μg/ml CDDP",0.352
same,Average CVE 72 h,"[3]; CALU-1 Run 2, 100 μg/ml CDDP",0.344
same,Average CVE 24 h,"[3]; CALU-1 Run 3, 0.1 μg/ml CDDP, 24 h",0.492
same,Average CVE 48 h,"[3]; CALU-1 Run 3, 0.1 μg/ml CDDP, 48 h",0.389
same,Average CVE 72 h,"[3]; CALU-1 Run 3, 0.1 μg/ml CDDP, 72 h",0.505
same,Average CVE 24 h,"[3]; CALU-1 Run 3, 1 μg/ml CDDP, 24 h",0.255
same,Average CVE 72 h,"[3]; CALU-1 Run 3, 1 μg/ml CDDP, 72 h",0.184
same,Average CVE 24 h,"[3]; CALU-1 Run 3, 10 μg/ml CDDP, 24 h",0.558
same,Average CVE 48 h,"[3]; CALU-1 Run 3, 10 μg/ml CDDP, 48 h",0.175
same,Average CVE 72 h,"[3]; CALU-1 Run 3, 10 μg/ml CDDP, 72 h",0.189
same,Average CVE 24 h,"[3]; CALU-1 Run 3, 100 μg/ml CDDP, 24 h",0.375
same,Average CVE 48 h,"[3]; CALU-1 Run 3, 100 μg/ml CDDP, 48 h",0.159
same,Average CVE 72 h,"[3]; CALU-1 Run 3, 100 μg/ml CDDP, 72 h",0.197
